In US10774112B2, “Biomimetic peptide and biodegradable delivery platform for the treatment of angiogenesis- and lymphangiogenesis-dependent diseases” (THE JOHNS HOPKINS UNIVERSITY, priority 2013, dated 2020):

How the values were obtained:
MDA-MB-231-luc tumors = assay: TCM-induced metastasis model; format: in vivo, mice
Protocol: TCM-Induced Metastasis Model.
Before tumor inoculation, athymic nude mice (female 5-6 weeks, 18-20 g) were treated with 50 μL TCM or SFM subcutaneously through the scruff for 2 weeks. After 2 weeks of TCM treatment, MDA-MB-231-luc-D3H2LN tumor xenografts were established in the same animals; the cells (2×10^6) were mixed with 50 μL complete media (RPMI-1640 supplemented with 10% FBS), and 50 μL Matrigel (High Concentrated, BD Biosciences) and injected into the upper inguinal mammary fat pad of the animals under anesthesia (50 mg/kg ketamine+5 mg/kg acepromazine in PBS, 50 μL/animal, intraperitoneally dosed). The primary tumor size was measured by using a caliper, and the volume w calculated, using the formula: V=0.52×a×b^2, where ‘a’ is the long axis, and ‘b’ is the short axis of the tumor. Animals were also imaged every week to track anterior tumor metastases, using the IVIS Xenogen 200 optical imager (Xenogen, Alameda, Calif.) after intraperitoneal injection of d-luciferin (Caliper 150 mg/kg). 100 μL D-luciferin (twice diluted) was intraperitoneally dosed on both sides of the abdomen (total 200 μL/animals) to prevent i.p. injection failure. […] Luciferase-mediated photon flux was quantified by using Living Image® 3D Analysis (Xenogen), and the average photon flux was obtained from eight lungs, eight brains, and 14-16 LNs as described before. […]

angiogenesis = assay: Angiogenesis in vivo (lectin staining, IHC)
lymphangiogenesis = assay: Lymphangiogenesis in vivo (LYVE-1 staining); details: FIG. 11
[1] = tested on: human retinal endothelial cells (HREC); assay: Migration assay (RT-CIM), HREC; format: cell-based; details: FIG. 2
Protocol: (§1) The inhibitory potential of the peptides was measured using a real time migration assay system based on electrical impedance (RT-CIM, ACEA Biosciences, CA). CIM 16 well plates (Roche, 05665817001) are composed of a top and bottom chamber separated by a microporous (8 μm) polycarbonate membrane. The membrane was coated with fibronectin (20 μg/mL), and 45,000 cells/well in serum free media with or without peptides were added to the top compartment. Media with chemoattractant (i.e., fully supplemented EBM-2) was added to the bottom compartment of the chamber and the plate was incubated at 37° C. for 20 hours. The sensors integrated on the bottom side of the membrane monitor and continuously record changes in impedance as the cells move through the membrane. The RT-CIM technology allows for easy quantification of cell migration by monitoring the cell index derived from the measured impedances. Assays were performed in at least two independent replicates and each replicate was performed using two experimental duplicates. Breast cancer cells MDA-MB-231 are not suitable for the RT-CIM type experiments due to their thin elongated phenotype, thus the inhibition of migration was investigated using a wound healing type assay. This assay was performed using the Oris Pro Migration assay (Platypus Technologies, CMA 1.101). […]

c-Met = assay: Phosphorylation of c-Met in vivo; details: FIG. 10
[2] = tested on: lymphatic endothelial cell (LEC); assay: LEC adhesion assay; format: cell-based; details: FIG. 4
Protocol: Similar to the migration assays, the inhibition activity of the peptide in cellular adhesion was assessed using the RT-CIM technology. In this case, 25,000 cells/well were plated in 16 wells E-plates (Roche, Basel Switzerland) in the presence or absence of the peptide. The adhesion was monitored over time (3 hours) by measuring changes in the electrical impedance, which is a direct measure of the cells adhering on the electrodes. Assays were performed in at least two independent replicates and each replicate was performed using two experimental duplicates.

neovascularization = assay: Neovascularization in a rabbit model; format: in vivo; details: day 34 following intravitreal injection into rabbit eyes; FIG. 26
vascular leakage = assay: Vascular leakage in Tet/Opsin/VEGF mouse model; format: in vivo, mice; details: FIGS. 15A-B
Protocol: Vascular Permeability in Mouse Eyes:
Mice were injected intravitreally with 1 μg of SP2043 (SEQ ID NO: 1) in one eye, and vehicle in the fellow eye and vehicle control was injected in the other eye of adult double transgenic Tet/Opsin/VEGF mice. Three days later, the mice were given 2 mg/mL doxycycline in the drinking water for 3 days. At that time the animals were anesthetized and their pupils dilated as for standard fundoscopy. The eyes were examined to compare the number of animals that had retinal detachments under the two treatments by fundus imaging using Micron II retinal imaging and optical coherence tomography imaging using published protocols.

[3] = tested on: hepatocyte growth factor (HGF) signaling; assay: HGF signaling in vitro in LEC; format: cell-based; details: FIG. 6
[4] = tested on: estrogen receptor positive cell line MCF-7; assay: Proliferation assay (WST-1), MCF-7; format: cell-based; details: in vitro; FIG. 7
Protocol: (§2) A colorimetric based proliferation assay using WST-1 (Roche, 11644807001) proliferation reagent was carried out using HREC cells, HUVEC cells, and the breast cancer cells MDA-MB-231, MCF-7, and SUM149. 2000 cells/well were plated in 96-well plates and allowed to adhere overnight. On the following day, the media was exchanged with fully supplemented media containing peptides or equivalent DMSO vehicle for the controls. Three days later, the media containing the peptides was replaced with serum-free EBM-2 media containing WST-1 reagent and the plates were incubated for four hours as per the manufacturer's recommendations. Changes in color, due to the formazan dye resulted from the cleavage of the tetrazolium salt WST-1 by the mitochondrial succinate-tetrazolium reductase, were read on a Victor V fluorescence plate reader (Perkin Elmer, Mass.) by measuring the absorbance at 450 nm. Dose response curves of percent live cells (in comparison to untreated cells, but incubated in complete media with 0.2% DMSO) were created. Assays were performed in at least two independent replicates and each replicate was performed using three experimental triplicates.

[5] = tested on: human umbilical vein endothelial cells (HUVEC); assay: Proliferation assay (WST-1), HUVEC; format: cell-based; details: FIG. 1
Protocol: as §2

[6] = tested on: human umbilical vein endothelial cells (HUVEC); assay: Migration assay (RT-CIM), HUVEC; format: cell-based; details: FIG. 1
Protocol: as §1

**Q.** What does the source list for “LRRFSTAPFAFIDINDVINF (Artificial sequence based on human Collagen Type IV protein) [SP2043]”?
**A.** metastasis of MDA-MB-231-luc tumors to lymph nodes, vimentin antibody staining for human cells (MDA-MB-231-luc tumors; FIG. 12B): inhibited; metastasis of MDA-MB-231-luc tumors to multiple organs, photon flux from tumor cells (MDA-MB-231-luc tumors; tumor-conditioned media pre-treated metastasis model, FIG. 12A): inhibited; angiogenesis in vivo (angiogenesis; FIG. 10): inhibit; angiogenesis as seen by lectin staining for IHC (angiogenesis; FIG. 11): inhibited; lymphangiogenesis as seen by LYVE-1 staining (lymphangiogenesis): inhibited; migration of HREC [1]: inhibit; phosphorylation of c-Met in vivo (c-Met): inhibit; lymphatic endothelial cell adhesion [2]: inhibit; neovascularization in a rabbit model (neovascularization): Inhibition; vascular leakage in Tet/Opsin/VEGF mouse model (vascular leakage): inhibited; HGF signaling in LEC [3]: inhibit; proliferation of MCF-7 [4]: inhibit; proliferation of HUVEC [5]: inhibit; migration of HUVEC [6]: inhibit
